≈ marks a conversion by molar mass, not a printed value. Calls of active or inactive are those of the source. The rule behind the calls is not given here.
Key:
[1] = test system: Spodoptera frugiperda; assay: Antifeedant activity against larvae of Spodoptera frugiperda (fall armyworm) assessed reduction of weight gain at 10 ppm after 21 days relative to control; type: functional; design: scale not given: the % may be the effect or the level left
[2] = test system: Spodoptera frugiperda; assay: Antifeedant activity against larvae of Spodoptera frugiperda (fall armyworm) assessed reduction of pupation at 25 ppm after 21 days relative to control; type: functional; design: scale not given: the % may be the effect or the level left
[3] = test system: Spodoptera frugiperda; assay: Insecticidal activity against larvae of Spodoptera frugiperda (fall armyworm) assessed growth index at 25 ppm; type: functional
[4] = test system: Drosophila melanogaster; assay: Insecticidal activity against larvae of Drosophila melanogaster assessed as mortality at 50 ug/ml after 72 hr by not choice test; type: functional
[5] = test system: Drosophila melanogaster; assay: Antifeedant activity against larvae of Drosophila melanogaster at 10 ug/ml after 12 to 24 hr; type: functional
[6] = test system: Spodoptera frugiperda; assay: Antifeedant activity against larvae of Spodoptera frugiperda (fall armyworm) at 100 ug/ml after 12 to 24 hr; type: functional
[7] = test system: Spodoptera frugiperda; assay: Antifeedant activity against larvae of Spodoptera frugiperda (fall armyworm) assessed reduction of weight gain at 25 ppm after 21 days relative to control; type: functional; design: scale not given: the % may be the effect or the level left
[8] = test system: Spodoptera frugiperda; assay: Insecticidal activity against larvae of Spodoptera frugiperda (fall armyworm) assessed growth index at 50 ppm relative to control; type: functional
[9] = test system: Spodoptera frugiperda; assay: Insecticidal activity against larvae of Spodoptera frugiperda (fall armyworm) assessed mortality at 25 ppm after 21 days relative to control; type: functional; details: 504 h
[10] = test system: Spodoptera frugiperda; assay: Insecticidal activity against larvae of Spodoptera frugiperda (fall armyworm) assessed growth index at 25 ppm relative to control; type: functional
[11] = test system: Spodoptera frugiperda; assay: Antifeedant activity against larvae of Spodoptera frugiperda (fall armyworm) at 25 ug/ml after 12 to 24 hr; type: functional
[12] = test system: Spodoptera frugiperda; assay: Antifeedant activity against larvae of Spodoptera frugiperda (fall armyworm) at 5 ug/ml after 12 to 24 hr; type: functional
[13] = test system: Spodoptera frugiperda; assay: Antifeedant activity against larvae of Spodoptera frugiperda (fall armyworm) at 10 ug/ml after 12 to 24 hr; type: functional
[14] = test system: Drosophila melanogaster; assay: Insecticidal activity against larvae of Drosophila melanogaster assessed as mortality after 72 hr by not choice test; type: functional
[15] = test system: Spodoptera frugiperda; assay: Antifeedant activity against larvae of Spodoptera frugiperda (fall armyworm) assessed reduction of adult emergence at 10 ppm after 21 days relative to control; type: functional; design: scale not given: the % may be the effect or the level left
[16] = test system: Spodoptera frugiperda; assay: Insecticidal activity against larvae of Spodoptera frugiperda (fall armyworm) assessed mortality at 50 ppm after 21 days relative to control; type: functional; details: 504 h
[17] = test system: Drosophila melanogaster; assay: Antifeedant activity against larvae of Drosophila melanogaster at 25 ug/ml after 12 to 24 hr; type: functional
[18] = test system: Spodoptera frugiperda; assay: Insecticidal activity against larvae of Spodoptera frugiperda (fall armyworm) assessed mortality at 10 ppm after 21 days relative to control; type: functional; details: 504 h
[19] = test system: Drosophila melanogaster; assay: Antifeedant activity against larvae of Drosophila melanogaster at 100 ug/ml after 12 to 24 hr; type: functional
[20] = test system: Drosophila melanogaster; assay: Insecticidal activity against larvae of Drosophila melanogaster assessed as mortality at 20 ug/ml after 72 hr by not choice test; type: functional
[21] = test system: Drosophila melanogaster; assay: Antifeedant activity against larvae of Drosophila melanogaster at 50 ug/ml after 12 to 24 hr; type: functional
[22] = test system: Spodoptera frugiperda; assay: Insecticidal activity against larvae of Spodoptera frugiperda (fall armyworm) assessed growth index at 10 ppm; type: functional
[23] = test system: Drosophila melanogaster; assay: Insecticidal activity against larvae of Drosophila melanogaster assessed as mortality at 100 ug/ml after 72 hr by not choice test; type: functional
[24] = test system: Spodoptera frugiperda; assay: Insecticidal activity against larvae of Spodoptera frugiperda (fall armyworm) assessed growth index at 50 ppm; type: functional
[25] = test system: Spodoptera frugiperda; assay: Antifeedant activity against larvae of Spodoptera frugiperda (fall armyworm) assessed reduction of adult emergence at 50 ppm after 21 days relative to control; type: functional; design: scale not given: the % may be the effect or the level left
[26] = test system: Spodoptera frugiperda; assay: Antifeedant activity against larvae of Spodoptera frugiperda (fall armyworm) assessed reduction of weight gain at 50 ppm after 21 days relative to control; type: functional; design: scale not given: the % may be the effect or the level left
[27] = test system: Spodoptera frugiperda; assay: Antifeedant activity against larvae of Spodoptera frugiperda (fall armyworm) assessed reduction of pupation at 50 ppm after 21 days relative to control; type: functional; design: scale not given: the % may be the effect or the level left
[28] = test system: Spodoptera frugiperda; assay: Antifeedant activity against larvae of Spodoptera frugiperda (fall armyworm) assessed reduction of pupation at 10 ppm after 21 days relative to control; type: functional; design: scale not given: the % may be the effect or the level left
[29] = test system: Spodoptera frugiperda; assay: Insecticidal activity against larvae of Spodoptera frugiperda (fall armyworm) assessed growth index at 10 ppm relative to control; type: functional
[30] = test system: Spodoptera frugiperda; assay: Antifeedant activity against larvae of Spodoptera frugiperda (fall armyworm) at 50 ug/ml after 12 to 24 hr; type: functional
[31] = test system: Spodoptera frugiperda; assay: Antifeedant activity against larvae of Spodoptera frugiperda (fall armyworm) assessed reduction of adult emergence at 25 ppm after 21 days relative to control; type: functional; design: scale not given: the % may be the effect or the level left
[32] = test system: Spodoptera frugiperda; assay: Antifeedant activity against larvae of Spodoptera frugiperda (fall armyworm) assessed reduction of weight gain at 35 ppm after 21 days relative to control; type: functional; design: scale not given: the % may be the effect or the level left
[33] = test system: Spodoptera frugiperda; assay: Antifeedant activity against larvae of Spodoptera frugiperda (fall armyworm) assessed reduction of adult emergence at 35 ppm after 21 days relative to control; type: functional; design: scale not given: the % may be the effect or the level left
[34] = test system: Spodoptera frugiperda; assay: Insecticidal activity against larvae of Spodoptera frugiperda (fall armyworm) assessed growth index at 35 ppm relative to control; type: functional
[35] = test system: Spodoptera frugiperda; assay: Insecticidal activity against larvae of Spodoptera frugiperda (fall armyworm) assessed induction of prothetely appearance of precocious pupal structures in larvae at 50 ug/ml, po after 48 to 72 hr; type: functional, organism-based
[36] = test system: Spodoptera frugiperda; assay: Insecticidal activity against larvae of Spodoptera frugiperda (fall armyworm) assessed growth index at 35 ppm; type: functional
[37] = test system: Spodoptera frugiperda; assay: Antifeedant activity against larvae of Spodoptera frugiperda (fall armyworm) assessed reduction of pupation at 35 ppm after 21 days relative to control; type: functional; design: scale not given: the % may be the effect or the level left
[38] = test system: Spodoptera frugiperda; assay: Antifeedant activity against larvae of Spodoptera frugiperda (fall armyworm) assessed reduction of pupation at 20 ppm after 21 days relative to control; type: functional; design: scale not given: the % may be the effect or the level left
[39] = test system: Spodoptera frugiperda; assay: Antifeedant activity against larvae of Spodoptera frugiperda (fall armyworm) assessed reduction of adult emergence at 20 ppm after 21 days relative to control; type: functional; design: scale not given: the % may be the effect or the level left
[40] = test system: Spodoptera frugiperda; assay: Insecticidal activity against larvae of Spodoptera frugiperda (fall armyworm) assessed mortality at 20 ppm after 21 days relative to control; type: functional; details: 504 h
[41] = test system: Spodoptera frugiperda; assay: Insecticidal activity against larvae of Spodoptera frugiperda (fall armyworm) assessed mortality at 35 ppm after 21 days relative to control; type: functional; details: 504 h
[42] = test system: Spodoptera frugiperda; assay: Insecticidal activity against larvae of Spodoptera frugiperda (fall armyworm) assessed inhibition of ecdysis at 25 ug/ml, po after 21 days; type: functional, organism-based
[43] = test system: Spodoptera frugiperda; assay: Insecticidal activity against larvae of Spodoptera frugiperda (fall armyworm) assessed induction of apolysis at 25 ug/ml, po after 21 days; type: functional, organism-based
[44] = test system: Spodoptera frugiperda; assay: Antifeedant activity against larvae of Spodoptera frugiperda (fall armyworm) assessed reduction of weight gain at 20 ppm after 21 days relative to control; type: functional; design: scale not given: the % may be the effect or the level left

Compound CC(=O)O[C@@H]1C[C@H]2C(C)(C)C(=O)C=C[C@]2(C)[C@H]2CC[C@@]3(C)[C@H](c4ccoc4)OC(=O)[C@H]4O[C@]43[C@@]21C [GEDUNIN] has an Activity [1] of 2.05%, an Activity [2] of 41.7% and a Growth_index [3] of 0.51. The mortality at 50 µg/mL [4] was 100%, the AFI [5] was 81% and the AFI [6] was 100%. It also gave an Activity [7] of 1.35%, a Ratio [8] of 0.11 and a mortality at 25 ppm [9] of 8.4%. For the same compound, the Ratio [10] was 0.55, the AFI [11] was 85.6% and the AFI [12] was 68.8%. It also gave an AFI [13] of 74.5%, an LC50 [14] of 11.9 µg/mL (≈ 24.7 µM) and an Activity [15] of 15%. For the same compound, the mortality at 50 ppm [16] was 100%, the AFI [17] was 98% and the mortality at 10 ppm [18] was 11.6%. The AFI [19] was 100%, the mortality at 20 µg/mL [20] was 87.1% and the AFI [21] was 100%. The Growth_index [22] was 0.77, the mortality at 100 µg/mL [23] was 100% and the Growth_index [24] was 0.1. For the same compound, the Activity [25] was 0%, the Activity [26] was 0% and the Activity [27] was 0%. It also gave an Activity [28] of 54.2%, a Ratio [29] of 0.71 and an AFI [30] of 89.9%. For the same compound, the Activity [31] was 13%.

In the case of C[C@@H]1O[C@@H](O[C@@H]2[C@@H](O)[C@H](OCCc3ccc(O)c(O)c3)O[C@H](CO)[C@H]2OC(=O)/C=C/c2ccc(O)c(O)c2)[C@H](O)[C@H](O)[C@H]1O [ACETOSIDE], the Activity [32] is reported as 0%, the Activity [1] is reported as 2.15% and the Activity [33] is reported as 0%. For the same compound, the Ratio [34] was 0.15, the Growth_index [3] was 0.41 and the Activity [35] was “Active”. It also gave a mortality at 50 µg/mL [4] of 100%, a Growth_index [36] of 0.09 and an AFI [5] of 89%. It also gave an Activity [37] of 0%, an AFI [6] of 100% and a Ratio [8] of 0.1. For the same compound, the Ratio [10] was 0.45, the AFI [11] was 96.7% and the AFI [12] was 78.9%. The AFI [13] was 88.2%, the Activity [38] was 3.1% and the LC50 [14] was 8.08 µg/mL (≈ 12.9 µM). The Activity [39] was 0%, the mortality at 20 ppm [40] was 100% and the Activity [15] was 0%. It also gave a mortality at 50 ppm [16] of 100%, an AFI [17] of 100% and a mortality at 10 ppm [18] of 81.3%. For the same compound, the mortality at 35 ppm [41] was 100%, the AFI [19] was 100% and the mortality at 20 µg/mL [20] was 92%. For the same compound, the inhibition [42] was “Active”, the AFI [21] was 100% and the Growth_index [22] was 0.66. It also gave a mortality at 100 µg/mL [23] of 100%, a Growth_index [24] of 0.07 and an Activity [25] of 0%. The Activity [26] was 0%, the Activity [27] was 0% and the Activity [43] was “Active”. It also gave an Activity [28] of 3.1%, a Ratio [29] of 0.67 and an AFI [30] of 100%. It also gave an Activity [44] of 1.35%.

From ChEMBL document CHEMBL3044640, “Antifeedant, insect growth regulatory and insecticidal effects of Calceolaria talcana (Calceolariaceae) on Drosophila melanogaster and Spodoptera frugiperda” (2013)
